US20120010177A1, “MicroRNA Modulators and Method for Identifying And Using The Same” (The Wistar Institute / North Carolina State University, priority 2008, published 2012)
Where two headings read alike, the source gives them in different places.

Tested on: miR-21
Experiment: High throughput primary miR-21 FLuc reporter assay (concentration-response)
Type: cell-based, human
Conditions: HeLa Luc-miR-21 reporter, 48-hour incubation; for AC50: read-out: AC50; for Curve Class: four parameter logistic fit
Experimental: Primary miR-21 Assay. The primary miR-21 FLuc reporter assay is carried out with HeLa cells expressing the Luc-miR-21 reporter using a 48-hour incubation time. Active compounds that increase the luciferase response are identified based upon inhibition of miR-21.
SAR. The concentration-response data for the entire high throughput screen is plotted and modeled by a four parameter logistic fit and SAR analysis is performed according to conventional approaches (Iglese, et al. (2006) Proc. Natl. Acad. Sci. USA […]:11473-8). In brief, Class 1.1 and 1.2 are full curves containing upper and lower asymptotes with efficacy ≧80% and <80%, respectively. Class 2.1 and 2.2 are incomplete curves having only one asymptote with efficacy ≧80% and <80%, respectively. Class 3 curves show activity at only the highest concentration or are poorly fit. […] For SAR analysis, compounds associated with Class 1 and 2.1 curves are clustered using LEADSCOPE® fingerprints. […] Compounds sharing a common scaffold form a series. Candidate series and singletons are chosen for follow up studies. For each lead or series, an appropriate library design method (e.g., point substitution library or matrix library) is selected. Typically, precursors are synthesized and a library of 15-25 compounds is produced for analysis in the above-described assays.

Compound	AC50 (Homo sapiens, HeLa, 48 h) [µM]	further results
NC(=O)COC(=O)c1ccc2noc(-c3ccccc3)c2c1 [Compound 182]	6.56	–
COc1ccc2cc(OCC(=O)NNC(=O)Nc3ccc(C(C)=O)cc3)ccc2c1 [Compound 183, COC1═C/C═C2/C═C(OCC(═O)NNC(═O)NC3═C/C═C(\C═C\3)C(C)═O)\C═C/C\2═C\1]	–	Efficacy: −65.21; Curve Class: −2.2; AC50: 16.5 µM
COc1ccc(OCC(=O)Nc2cc(-c3nc4ccccc4s3)ccc2C)cc1 [Compound 184]	4.65	–
C/C(=N\NC(=O)c1ccncc1)c1ccc(NC(=O)c2ccc(Cl)cc2)cc1 [Compound 185]	1.47	–
O=C(NN=C1CCCC1)c1cccs1 [Compound 186]	1.65	–
COc1ccc(NC(=O)C/C(C)=N/NC(=O)c2ccccn2)c(OC)c1 [Compound 187]	1.85	–
COc1ccccc1NC(=O)C/C(C)=N/NC(=O)c1ccccn1 [Compound 188]	1.85	–
CC(=O)Nc1ccccc1NC(=O)C/C(C)=N/NC(=O)c1ccccn1 [Compound 189]	1.85	–
COc1ccc(NC(=O)C/C(C)=N/NC(=O)c2cccs2)c([N+](=O)[O-])c1 [Compound 190]	1.85	–
C/C(=N\N1C(=O)c2ccccc2NC1c1ccccc1)c1ccccc1O (stereo not drawn) [Compound 192]	2.61	–
O=C(Cc1cccs1)N/N=C/C(Cl)=C/c1ccccc1 [Compound 193]	2.93	–
COc1cc(NC(=O)C/C(C)=N/NC(=O)c2ccccn2)c(OC)cc1Cl [Compound 194]	3.69	–
C/C(CC(=O)Nc1cc(C)cc(C)c1)=N\NC(=O)c1ccccn1 [Compound 195]	4.65	–
C/C(=N\NC(=O)c1ccco1)c1ccc(C(=O)O)s1 [Compound 196]	4.65	–
C/C(=N\NC(=O)c1ccccc1)c1ccc(NC(=O)C(F)(F)F)cc1 [Compound 197]	4.65	–
Nc1ccccc1C(=O)N/N=C1\CCC\C1=C(\O)C(F)(F)F [Compound 198]	5.21	–
O=C(N/N=C1\CC2C=CCC12)c1ccco1 (stereo not drawn) [Compound 199]	5.21	–
C/C(CC(=O)NC(C)(C)C)=N\NC(=O)c1ccccc1N [Compound 200]	5.21	–

Compound	AC50 (Homo sapiens, HeLa, 48 h) [µM]	further results
CC1C2CC(C/C2=N\NC(=O)c2cccs2)C1(C)C (stereo not drawn) [Compound 201]	5.21	–
Cc1ccc(N/C(S)=N/NC(=O)c2nn(C)c(C)c2Cl)cc1 [Compound 203]	5.85	–
O=C(Cc1cccs1)N/N=C/C=C/c1ccccc1[N+](=O)[O-] [Compound 204]	6.56	–
C/C(CC(=O)NC(C)(C)C)=N\NC(=O)c1ccco1 [Compound 205]	6.56	–
CC(C)N1CCC(=NNC(=O)c2cccs2)CC1 [Compound 206]	6.56	–
Cc1ccc(C)c(N/C(S)=N/NC(=O)c2csc(C)c2C)c1 [Compound 207]	6.56	–
COc1ccc(N/C(S)=N/NC(=O)c2cccs2)cc1 [Compound 208]	7.36	–
CC(=NNC(=O)c1ccoc1C)c1cccc2ccccc12 [Compound 209, CC(═NNC(═O)C1═C(C)/O/C═C\1)C2═C/C═C\C3═C\C═C/C═C\2\3]	–	Efficacy: −65.67; Curve Class: −2.2; AC50: 7.36 µM
Cc1occc1C(=O)N/N=C(\S)Nc1ccccc1C(F)(F)F [Compound 211]	8.26	–
COc1ccc(C2=NN(C(C)=O)C(c3cccs3)C2)cc1OC (stereo not drawn) [Compound 212]	8.26	–
C/C(CC(=O)NCc1ccccc1Cl)=N\NC(=O)c1ccccn1 [Compound 213]	8.26	–
CCCCC12CN3CCN(CC(C3)/C1=N/NC(=O)c1ccccc1N)C2 [Compound 214]	9.27	–
C/C(=N\NC(=O)c1ccc(Br)o1)c1ccc(C)o1 [Compound 216]	10.4	–
CC1=NN(C(=O)c2ccoc2C)C(O)(C(F)(F)F)C1 (stereo not drawn) [Compound 217]	10.4	–
C/C(=N\NC(=O)c1ccoc1C)c1ccc(Br)s1 [Compound 219]	11.7	–
O=C(N/N=C/c1cccc([N+](=O)[O-])c1)c1nc(O)c2ccccc2n1 [Compound 220]	11.7	–
O=C(N/N=C1\CC2C=CCC12)c1cccs1 (stereo not drawn) [Compound 221]	11.7	–
